Four substances from patent US20060105974A1, “Conjugates of photosensitizers and oligonucleotides for selective photochemiotherapy” (priority 2002, published 2006) can be followed below.

The subject of series [1] is GEO human colon cancer cells. Put plainly: MTT cell viability assay after oligonucleotide incubation with or without irradiation. The class given is cell-based. Conditions: one day after incubation, no irradiation. As to the method:
To test the possibility of inhibiting cell growth by targeting the EGFR mRNA with Ω-sensitizers, mixed backbone oligonucleotides similar to those described in Example 1 were prepared, using methods described in Example 5. The sequences tested were:
GEO human colon cancer cells known to express approximately about 40000 functional EGFRs were purchased from ATCC (Rockville, Md., USA) and grown as described. Culture was performed in the presence of 10% fetal calf serum (FCS) and penicillin/streptomycin at 37° C. and 6% CO2 in a humid environment. For measurement purposes, the cells were subcultured in 48-well dishes (Costar 3548, Integra Biosiences, Cambridge, Mass., USA) to give 10^5 cells/well 72 hours prior to incubation with the oligonucleotides. […]
The cell viability was tested by means of an MTT assay. This technique allows quantification of cell survival after cytotoxic insult by testing the enzymatic acitivity of the mitochondria. […] The optical density of the product was quantified by its absorption at 540 nm using a 96-well ELISA plate reader (iEMS Reader MF, Labsystems, USA). […] The absorption of each residue was determined at 540 nm using the plate reader. The absorbance readings from treated cells was divided by the absorbance readings from the control cells in order to calculate the fraction of surviving cells.

Series [2] relates to target sequence (mam gene sequence). Put plainly: Ω-sensitizer-induced photo-oxidation of DHR123 as a function of target concentration. The class given is biochemical. Conditions: 10 J/cm^2. From the text: In order to test the possibility of using nano particles as the quenching moiety, oligonucleotides labeled with a photosensitive moiety at the 3′ terminus, where labeled at the 5′ terminus with amino modified gold nanoparticles. The mam gene sequence S′-CGGATGAAACTCTGAGCAATGTCTGCAGTTCTGTGAGCCAAAG-3′ (GeneBank accession No. AF015224) was coupled to the complementary stem sequences CCA AGC and GCT TGG at its 5′ and 3′ termini, respectively. The sequence was constructed using fully automated DNA synthesis as described in Example 1. The 3′ end contained an amino group, while the 5′ end was equipped with a six carbon spacer thiol group protected by a trityl moiety (Glen Research, Sterling, Va.) using standard methods. Following cleavage with 28% ammonium hydroxide, oligonucleotides were washed and purified as described above. The 3′ end photosensitive moiety labeled oligonucleotide was prepared and purified using the NHS ester of pheophorbide a as described in Example 1. Then the trityl protection group was removed by adding 0.15M silver nitrate solution to the labeled oligonucleotide for 1 hour. To this mixture 0.15M dithiothreitol (DTT) was added for 10 minutes. After spinning at 10000 rpm the supernatant was transferred to another tube. 400 pmol of this oligonucleotide were then suspended in 180 μl of water and immediately reacted with 6 nmol of monomaleimido gold particles (Ø=1.4 nm) (Nanoprobes) in aqueous 20 mM NaH2PO4, 150 mM NaCl, 1 mM ethylenediamine […] (EDTA) Buffer, pH 6.4, containing 10% isopropanol at 4° C. for 24 hours.
To the solution containing the Ω-sensitizer, 5′ (gold particle)-S—(CH2)6— CCAAGCCGGATGAAACTCTGAGCAATGTCTGCAGTTCTGTGAGCCAAAGCTTGG-(pheophorbide a)-3′, target and one base pair mismatch oligonucleotides were added at different concentrations. After adding appropriate quantities of DHR123 (see Example 1), the solutions were irradiated at 405 nm with electromagnetic radiation doses of 10 J/cm^2 and the fluorescence of rhodamine 123 was measured as described above as a function of the target concentration.

The next series concerns sense oligonucleotides. Put plainly: Photo-oxidation of DHR123 to RH123 by Ω-sensitizers with sense and mismatch oligonucleotides. The class given is biochemical. The conditions noted are these: irradiation 405±5 nm; for photochemically induced oxidation of DHR123: in the presence of the sense oligonucleotide; for reduction of oxidation capacity (photo-oxidation of DHR123), one base pair mismatch versus sense oligonucleotide / reduction of oxidation capacity (photo-oxidation of DHR123), two base pair mismatches versus sense oligonucleotide: RH123 fluorescence at 529 nm; for reduction of oxidation capacity (photo-oxidation of DHR123), two base pair mismatches versus sense oligonucleotide: two base pair mismatch sense oligonucleotide. The method, then:
(§1) The selective photosensitizing action of the different Ω-sensitizers described in Example 1 was tested in vitro against sense oligonucleotides, and sense oligonucleotides having one and two base mismatches, respectively. For this purpose oligonucleotides with sequences 5′-CAAAGGGAGGAAACCTAGCA-3′ (sense), 5′-CAAAGGGAGGTAACCTAGCA-3′ (sense 1 bp mismatch), and 5′-CAAAGGGAAGTAACCTAGCA-3′ (sense 2 bp mismatch) were synthesized using standard automated phosphoramidite chemistry. Oligonucleotides were dissolved in 2 ml of a solution containing 10 mM Tris-HCl and 2 mM MgCl2 to give a final concentration of 0.8 μM in a quartz cuvette. To this solution 1 ml Dihydrorhodamine 123 (DHR123) (Molecular Probes, Eugene, USA) (40 μM) dissolved in 10 mM Tris-HCl was added. DHR123 is a non-fluorescent molecule that in the presence of oxygenating species undergoes oxygenation to give the fluorescent dye rhodamine 123 having an absorption maximum at 507 nm and a fluorescence maximum at 529 nm. 1 ml of Ω-sensitizer (800 nM) containing solution was added and the final solution was stored in the dark at 37° C. for 20 minutes. Then the solution was irradiated at 405±5 nm with electromagnetic radiation from a filtered Hg-Arc lamp. The RH123 fluorescence intensity at 529 nm was measured every 60 seconds using a Perkin Elmer spectrofluorometer (Model LS50B, Perkin Elmer, Rotkreuz, CH)

The subject of another series is sense oligonucleotide. Put plainly: Intrinsic fluorescence emission of the Ω-sensitizer after excitation at 405 nm with sense and mismatch oligonucleotides. The series is classed as binding. Conditions: excitation 405 nm; two base pair mismatch oligonucleotide versus sense oligonucleotide. As to the method:
as §1, with “1 ml of Ω-sensitizer (800 nM) containing solution was added and the final solution was stored in the dark at 37° C. for 20 minutes. Then the solution was irradiated at 405±5 nm with electromagnetic radiation from a filtered Hg-Arc lamp.” left out
Furthermore, the intrinsic fluorescence of the pheophorbide a labeled Ω-sensitizer was used to further underline the selectivity of these new photochemotherapeutic agents.

{Ce6} = chlorin e6 photosensitizer conjugate

Turning to “5′ (chlorin e6) -GC*G A*CT GA*C TGC CA*A C*TA TG*A* ACA T*C*G C-(chlorin e6)3′ [b)]”, the “cell viability (mitochondrial activity, MTT) in the dark” value in series [1] is “only slightly reduced”.
For “5′ (gold particle)-S—(CH2)6— CCAAGCCGGATGAAACTCTGAGCAATGTCTGCAGTTCTGTGAGCCAAAGCTTGG-(pheophorbide a)-3′ (CCAAGCCGGATGAAACTCTGAGCAATGTCTGCAGTTCTGTGAGCCAAAGCTTGG; hairpin, 5' gold particle via hexyl thiol, 3' pheophorbide a, partial phosphorothioate, further chemistry not given here)”, the “concentrations of the one base pair mismatched oligonucleotide at which photodynamic action can be observed” value in series [2] (405 nm) is “only very high concentrations”. In addition, the “concentration of the target sequence at which the RH123 fluorescence intensity reaches its maximum” value in series [2] (irradiated at 405 nm, RH123 fluorescence at 529 nm) is recorded as “about 0.5 μM”. For the same substance, the “RH123 fluorescence with oligonucleotide not complementary to the TCS” value in series [2] (one base pair mismatched oligonucleotide at about 0.5 μM, 405 nm) was “no fluorescence is detectable”.
As for “5′-(chlorin)-GCGATGCTAGGTTTCCTCCCTTTGTCGC-(chlorin)-3′ (GCGATGCTAGGTTTCCTCCCTTTGTCGC; DNA, linkages osossooooossooooooooossssso (s phosphorothioate, o phosphodiester), 5' {Ce6}, 3' {Ce6}, methylation of C not given here) [chlorin e6 labeled Ω-sensitizer]”, in the series on sense oligonucleotides, the “photochemically induced oxidation of DHR123” value is on record as “most efficient”; the “reduction of oxidation capacity (photo-oxidation of DHR123), one base pair mismatch versus sense oligonucleotide” value is listed as “about 5 fold”; the “reduction of oxidation capacity (photo-oxidation of DHR123), two base pair mismatches versus sense oligonucleotide” value is given as about 20 fold.
“5′-(pheo a)-GCGATGCTAGGTTTCCTCCCTTTGTCGC-(pheo a)-3′ (GCGATGCTAGGTTTCCTCCCTTTGTCGC; pheophorbide a at both ends, partial phosphorothioate, pattern not given here) [pheophorbide a labeled Ω-sensitizer]”: in the series on sense oligonucleotides, the “photochemically induced oxidation of DHR123” value is on record as “most efficient”; the “reduction of oxidation capacity (photo-oxidation of DHR123), one base pair mismatch versus sense oligonucleotide” value is recorded as “about 5 fold”; the “reduction of oxidation capacity (photo-oxidation of DHR123), two base pair mismatches versus sense oligonucleotide” value is about 20 fold. Also, the “RH123 fluorescence intensities achieved, compared with the chlorin e6 labeled Ω-sensitizer” value in the series on sense oligonucleotides (fluorescence at 529 nm) is given as “higher fluorescence intensities”. Besides, the “fluorescence of the photosensitiser pheophorbide a (intrinsic fluorescence of the Ω-sensitizer)” value in the series on sense oligonucleotide is “significant reduction”.
